The values below come from patent US7713937B2, “Synthetic peptide amides and dimeric forms thereof” (Cara Therapeutics, Inc., priority 2006, dated 2010).

Each structure is given as a SMILES string. Where “and” joins values, the source holds several entries; their conditions need not be identical. Identical values can stand only once.

Data set [1] can be described thus: Pharmacokinetics in cynomolgus monkeys, plasma half life. To be noted: male, cynomolgus monkey, iv.
Data set [2] concerns the target T1, mouse kappa opioid receptor (mKOR) (Mus musculus, UniProt P33534).
T1 construct: Stimulation of Endogenous Mouse Kappa-Opioid Receptor in R1.G1 Cells; host or cells: R1.G1 mouse thymoma cells
The data set can be described thus: cell-based. To be noted: for Emax: read-out: mKOR Efficacy(%).

Data set [3] addresses T2, human kappa opioid receptor (hKOR) (Homo sapiens, UniProt P41145).
T2 construct: expressed in transfected cells; host or cells: HEK-293 cells, transient transfection with Fugene6
The data set can be described thus: cell-based. The conditions noted are these: for Emax: HEK293, read-out: hKOR Efficacy(%).

Data set [4] relates to CYP1A. The data set can be described thus: Cytochrome P450 CYP1A inhibition in human liver microsomes. It is filed as in vitro ADME. To be noted: percent remaining CYP activity, 10 μM test compound, (54) in Expt 1 and Expt 2. The method, then: Inhibition of cytochrome P450 oxidase isozymes CYP1A, CYP2C9, CYP2C19, CYP2D6 and CYP3A4 by synthetic peptide amide compounds of the invention was determined according to the following methods performed by Cerep (Seattle, Wash.):
In the cytochrome P450 CYP1A assay, human liver microsomes (0.2 mg/ml protein) were incubated for 15 minutes at 37° C. with 10 μM test compound, 1 μM ethoxyresorufin, 1.3 mM NADP, 3.3 mM glucose-6-phosphate and 0.4 U/ml glucose-6-phosphate dehydrogenase. In the absence of test compound, the ethoxyresorufin added as substrate is oxidized to resorufin, and in the presence of an inhibitor of the CYP isozyme, the amount of resorufin produced is reduced. Furafylline was used as a reference inhibitor.
In each assay, the percent inhibition of the cytochrome P450 CYP P450 isozyme was determined as one hundred times the ratio of (1-minus the amount of product in the sample in the presence of the test compound) divided by the amount of product in the sample containing untreated isozyme.

Data set [5] has as its system ICR mice. The data set can be described thus: Acetic acid-induced writhing assay in mice. It is filed as in vivo, mouse. To be noted: subcutaneous, ICR mice.
Data set [6] addresses CYP2C9 (Homo sapiens, UniProt P11712). The data set can be described thus: Cytochrome P450 CYP2C9 inhibition in human liver microsomes. The conditions noted are these: percent remaining CYP activity, 10 μM test compound, (54) in Expt 1 and Expt 2.
Data set [7] concerns the target CYP2C19 (Homo sapiens, UniProt P33261). The data set can be described thus: Cytochrome P450 CYP2C19 inhibition in human liver microsomes. To be noted: percent remaining CYP activity, 10 μM test compound, (54) in Expt 1 and Expt 2.
The nature of data set [8]: Inhibition of locomotion in mice (locomotion reduction assay, sedation). To be noted: mouse, in vivo, sc, subcutaneous, sedative effect. The method, then: To determine the potential sedative effect of test compounds, the extent of locomotion after the administration of the test compound or vehicle control can be determined and compared with a specialized apparatus designed for this purpose (Opto-Varimex Activity Meter). At the start of each experiment, each mouse was weighed and examined to determine good health. […] The subcutaneous injection was performed in the back of the neck of the mouse, pinched in a “tent” to allow proper access for the syringe needle. After injection, each animal was placed individually in Plexiglas boxes (43 cm×43 cm) inside the Opto-Varimex Activity Meter apparatus. Before the animal was placed in the apparatus, a thin layer of SANI-CHIPS rodent bedding was placed on the bottom of the Plexiglas box to provide a comfortable environment. Each Opto-Varimex Activity Meter apparatus was then turned on and data acquisition begun by the ATM3 Auto-Track System. The data were processed and results expressed in the same way as described for the writhing assay data above.

In data set [9] the target is CYP2D6 (Homo sapiens, UniProt P10635). The data set can be described thus: Cytochrome P450 CYP2D6 inhibition in human liver microsomes. To be noted: percent remaining CYP activity, 10 μM test compound, (54) in Expt 1 and Expt 2.
Data set [10] addresses CYP3A4 (Homo sapiens, UniProt P08684). The data set can be described thus: Cytochrome P450 CYP3A4 inhibition in human liver microsomes (midazolam). To be noted: percent remaining CYP activity, 10 μM test compound, (54) in Expt 1 and Expt 2.
The subject of data set [11] is albino New Zealand strain rabbits. The data set can be described thus: Capsaicin-induced ocular pain, palpebral opening. It is filed as in vivo, rabbit. The conditions noted are these: Table VI, 10 mg/ml instilled, 10-30 min. post capsaicin, five animals.

T2 sequence (P41145 whole entry): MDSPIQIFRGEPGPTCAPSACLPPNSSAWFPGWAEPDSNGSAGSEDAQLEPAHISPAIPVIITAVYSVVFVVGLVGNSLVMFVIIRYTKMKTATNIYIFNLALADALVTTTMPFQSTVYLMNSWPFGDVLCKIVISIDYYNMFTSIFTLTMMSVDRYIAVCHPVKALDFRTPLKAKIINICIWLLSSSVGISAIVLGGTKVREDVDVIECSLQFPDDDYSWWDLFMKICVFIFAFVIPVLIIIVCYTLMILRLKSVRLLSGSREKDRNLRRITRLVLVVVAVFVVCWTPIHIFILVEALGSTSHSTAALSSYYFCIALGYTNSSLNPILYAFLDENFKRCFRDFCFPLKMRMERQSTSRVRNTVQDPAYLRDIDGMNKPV
T1 sequence (P33534 whole entry): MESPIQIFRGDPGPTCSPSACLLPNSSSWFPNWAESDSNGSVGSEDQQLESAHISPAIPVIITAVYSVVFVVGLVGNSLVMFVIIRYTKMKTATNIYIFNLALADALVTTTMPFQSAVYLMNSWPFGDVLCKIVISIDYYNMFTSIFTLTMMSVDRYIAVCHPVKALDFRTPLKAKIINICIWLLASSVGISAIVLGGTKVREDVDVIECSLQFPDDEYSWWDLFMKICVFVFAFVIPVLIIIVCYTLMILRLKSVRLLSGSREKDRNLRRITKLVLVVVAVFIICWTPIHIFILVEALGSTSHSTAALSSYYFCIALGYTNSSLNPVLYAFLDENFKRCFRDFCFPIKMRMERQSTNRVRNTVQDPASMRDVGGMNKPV
Sequence of CYP3A4 (P08684 whole entry): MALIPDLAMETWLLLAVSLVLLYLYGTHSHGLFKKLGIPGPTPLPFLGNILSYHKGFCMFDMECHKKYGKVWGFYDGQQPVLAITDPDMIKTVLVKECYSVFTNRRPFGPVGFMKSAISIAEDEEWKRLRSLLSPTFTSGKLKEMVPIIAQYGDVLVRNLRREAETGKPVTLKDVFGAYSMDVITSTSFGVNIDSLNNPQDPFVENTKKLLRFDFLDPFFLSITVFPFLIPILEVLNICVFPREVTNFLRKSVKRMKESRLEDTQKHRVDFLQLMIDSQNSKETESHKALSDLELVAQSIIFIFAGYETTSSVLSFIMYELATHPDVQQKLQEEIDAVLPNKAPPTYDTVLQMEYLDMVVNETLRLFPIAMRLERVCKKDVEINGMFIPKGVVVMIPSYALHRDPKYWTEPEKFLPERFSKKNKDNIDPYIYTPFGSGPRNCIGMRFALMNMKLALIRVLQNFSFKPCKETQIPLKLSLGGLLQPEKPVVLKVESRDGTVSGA
Sequence of CYP2D6 (P10635 whole entry): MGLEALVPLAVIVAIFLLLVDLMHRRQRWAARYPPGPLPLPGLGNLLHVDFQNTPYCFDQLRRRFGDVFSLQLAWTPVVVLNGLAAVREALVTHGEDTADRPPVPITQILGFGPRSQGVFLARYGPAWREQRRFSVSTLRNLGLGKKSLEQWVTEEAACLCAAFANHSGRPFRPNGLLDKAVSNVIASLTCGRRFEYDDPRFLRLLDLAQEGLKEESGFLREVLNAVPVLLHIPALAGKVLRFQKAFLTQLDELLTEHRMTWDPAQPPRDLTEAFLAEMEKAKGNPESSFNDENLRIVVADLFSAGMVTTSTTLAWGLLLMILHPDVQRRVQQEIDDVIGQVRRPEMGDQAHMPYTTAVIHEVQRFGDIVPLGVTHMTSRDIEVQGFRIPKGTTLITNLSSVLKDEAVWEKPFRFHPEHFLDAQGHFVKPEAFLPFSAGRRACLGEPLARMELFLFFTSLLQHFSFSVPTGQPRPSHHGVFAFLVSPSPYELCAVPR
Sequence of CYP2C9 (P11712 whole entry): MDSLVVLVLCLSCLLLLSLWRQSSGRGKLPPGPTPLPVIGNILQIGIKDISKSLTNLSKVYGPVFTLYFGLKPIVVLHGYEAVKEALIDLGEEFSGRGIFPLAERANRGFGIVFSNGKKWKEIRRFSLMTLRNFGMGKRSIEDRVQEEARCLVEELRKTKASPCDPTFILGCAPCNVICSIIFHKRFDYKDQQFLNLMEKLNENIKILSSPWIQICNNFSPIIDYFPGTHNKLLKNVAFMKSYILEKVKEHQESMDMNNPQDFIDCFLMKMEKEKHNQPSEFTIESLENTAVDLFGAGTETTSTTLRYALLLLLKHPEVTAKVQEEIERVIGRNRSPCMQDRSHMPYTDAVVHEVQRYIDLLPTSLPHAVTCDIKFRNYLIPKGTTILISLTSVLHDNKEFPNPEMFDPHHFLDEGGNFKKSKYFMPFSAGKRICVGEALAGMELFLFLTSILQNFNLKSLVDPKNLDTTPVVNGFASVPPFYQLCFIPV
Sequence of CYP2C19 (P33261 whole entry): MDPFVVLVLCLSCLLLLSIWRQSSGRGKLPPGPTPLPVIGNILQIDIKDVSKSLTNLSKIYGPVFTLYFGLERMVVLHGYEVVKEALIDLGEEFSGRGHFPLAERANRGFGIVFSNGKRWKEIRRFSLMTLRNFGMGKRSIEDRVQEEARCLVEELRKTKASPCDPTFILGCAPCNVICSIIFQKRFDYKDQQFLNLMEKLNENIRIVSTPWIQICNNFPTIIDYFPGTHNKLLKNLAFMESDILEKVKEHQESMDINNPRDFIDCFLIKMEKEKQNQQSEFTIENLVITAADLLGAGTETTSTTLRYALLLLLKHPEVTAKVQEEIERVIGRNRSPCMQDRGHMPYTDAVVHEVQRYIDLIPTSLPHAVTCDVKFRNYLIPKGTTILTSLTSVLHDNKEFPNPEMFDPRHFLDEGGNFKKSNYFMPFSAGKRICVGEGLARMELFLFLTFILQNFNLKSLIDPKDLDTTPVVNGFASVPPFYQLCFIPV

With `C/N=C(/N)N1CCCN(C(=O)[C@@H](CCCN)NC(=O)[C@@H](CC(C)C)NC(=O)[C@@H](Cc2ccccc2)NC(=O)[C@H](N)Cc2ccccc2)CC1` [Compound (52), D-Phe-D-Phe-D-Leu-D-Orn-[4-(N-methyl)amidino-homopiperazine amide]], in data set [1], the half-life was determined as 1.15 h. Moreover, in data set [2], the EC50 came out at 0.035 nM and the Emax was 101%. For the same molecule, in data set [3], a half-maximal effect (EC50) was put at 0.18 nM and the Emax turned out to be 96%.

Regarding `CC(C)C[C@@H](NC(=O)[C@@H](Cc1ccccc1)NC(=O)[C@H](N)Cc1ccccc1)C(=O)N[C@H](CCCN)C(=O)N1CCCN(C2=NCCN2)CC1` [Compound (54), D-Phe-D-Phe-D-Leu-D-Orn-[4-(4,5-dihydro-1H-imidazol-2-yl)homopiperazine amide]], the “Percent Activity of Cytochrome P450 CYP1A” value in data set [4] is 97.1% and 95.8%. In data set [5], the “ED50 in the acetic acid-induced writhing assay” value was 0.074 mg/kg. For the same molecule, in data set [6], the “Percent Activity of Cytochrome P450 CYP2C9” value was 99.2% and 98.2%. Further, the “Percent Activity of Cytochrome P450 CYP2C19” value in [7] is 94.1% and 97.8%. Besides, in data set [2], the response was half-maximal at 0.056 nM (EC50) and the Emax is 99%. Further, in [3], the midpoint of the response, the EC50, lay at 0.13 nM and the Emax was determined as 90%. Besides, it took a dose of 3.17 mg/kg to reach the 50% effect level in data set [8] (ED50). In data set [9], the “Percent Activity of Cytochrome P450 CYP2D6” value was 98.4% and 98.2%. Moreover, the “Percent Activity of Cytochrome P450 CYP3A4” value in data set [10] is 94.7% and 95.9%.

As for `CC(C)C[C@@H](NC(=O)[C@@H](Cc1ccccc1)NC(=O)[C@H](N)Cc1ccccc1)C(=O)N[C@H](CCCCN)C(=O)N1CCC(N2CCC[C@H]2C(=O)O)CC1` [Compound (4), D-Phe-D-Phe-D-Leu-D-Lys-[N-(4-piperidinyl)-L-proline]-OH], in data set [11], the “Mean (% Control) palpebral opening” value is recorded as 56.7 % Control. In [2], the response was half-maximal at 0.075 nM (EC50) and the Emax was found to be 94%. Further, in data set [3], the response was half-maximal at 0.15 nM (EC50) and the Emax was 92%.
